Experiments:
[1] = system: Male SD rats; assay: Arteriovenous shunt model in rats; assay type: in vivo, rat; parameters: concentration or dose not given beside the values; details: rats given orally 2-4 hours before shunt opened; shunt 15 minutes; thrombus weight, treated vs. mean vehicle
Description: III. Arteriovenous Shunt Model in Rats
Two 10 cm-long polyethylene tubings (1.50 and 2.88 mm of inner and outer diameter, respectively) linked to a central part (8 cm-long, 2.11 and 3.77 mm of inner and outer diameter, respectively) containing a 6 cm silk thread and filled with heparin (3.125 U/ml) were placed between the right carotid artery and the left jugular vein in rats.
Male SD rats were anesthetized by intraperitoneal injection of 10% chloral hydrate after oral dose, inverted fixation, then the right catotid artery and left vena jugularis externa were isolated, the proximal and distal sutures of catotid artery were tied. The syringe needle were cannulated into the catotid artery and fasted, the other of the tube was cannulated into the right vena jugularis externa. Rats were given orally 2-4 hours before the shunt was opened. Blood flowed from the right carotid artery into the polyethylene tubing and then return to left vena jugularis externa. The shunt was then disconnected 15 minutes later and the silk thread covered with thrombus was immediately withdrawn and weighed. The wet weight of the thrombus was determined. Then the silk thread was dried at 60° C. for 4 h to get the dry weight of the thrombus. The anti-thrombotic effects of these agents were expressed as percentage inhibition of thrombus formation based on the treated vs. the corresponding mean vehicle.

[2] = target: T1, Factor Xa (Homo sapiens, UniProt P00742); assay: Anti-Factor Xa activity assay (chromogenic substrate CS-11(22)); assay type: biochemical; details: ratio of compound IC50 to apixaban IC50; Factor Xa 0.1 U/ml, absorbance at 405 nm, 37° C.
T1 construct: purchased MERK
Method: I. Anti-Factor Xa Activity Assay
Substrate: CS-1122 (Hyphen)
Buffer: 50 mM TrisHCl, 150 mM NaCl, PH8.3
100 μL of buffer, 50 μL of different concentrations of compounds (diluted with buffer) and 50 μl of 0.1 U/ml Factor Xa enzyme (diluted with buffer) were added to a 96-well plate. After 15 min of exposure, 50 μL of chromogenic substrate 2.5 mg/ml CS-11 (22) was added. The substrate hydrolysis was monitored by measuring absorbance at 405 nm at 37° C. for up to 30 min (interval: 30 seconds) using a microplate spectrophotometer. IC50 was calculated by bliss.

[3] = system: Male SD rats; assay: Rat tail bleeding model; assay type: in vivo; details: rat tail transected 0.5 to 4 hours after administration; prolongation = ratio of treated vs. mean vehicle value; relative to apixaban
Method: II Rat Tail Bleeding Model
Male SD rats were allocated randomly and administrated. After the administration, the rats were anesthetized by intraperitoneal injection of 10% chloral hydrate. At the time point of 0.5 to 4 hours (Tmax in PK) after the administration, the tails of anesthetized rats were transected 3 mm from the tip and vertically immersed in saline at 37° C. The time point when the continuous blood flow ceased for >30 s was measured. The prolongation of bleeding time was expressed as a ratio of treated vs. the mean vehicle value. Effects of compounds were determined as described below.

T1 sequence (P00742 235-488 limits assumed): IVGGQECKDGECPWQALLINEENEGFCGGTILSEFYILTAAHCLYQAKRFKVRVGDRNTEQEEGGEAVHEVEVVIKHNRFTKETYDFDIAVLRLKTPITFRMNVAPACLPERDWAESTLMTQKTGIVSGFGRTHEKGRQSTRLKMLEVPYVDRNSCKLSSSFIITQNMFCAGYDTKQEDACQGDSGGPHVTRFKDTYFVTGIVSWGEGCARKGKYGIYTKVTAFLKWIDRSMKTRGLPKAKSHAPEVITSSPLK
T1 sequence (P00742 41-179 partner limits assumed): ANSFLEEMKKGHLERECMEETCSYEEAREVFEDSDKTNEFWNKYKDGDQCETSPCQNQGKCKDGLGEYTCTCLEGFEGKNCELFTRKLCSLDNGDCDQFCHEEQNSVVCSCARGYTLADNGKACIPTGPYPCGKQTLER

IC50(Compound)/IC50(apixaban) [2] | The Prolongation of bleeding time (compound)/The Prolongation of bleeding time(apixaban) [3] | Compound | Inhibition of thrombus formation (%) [1] [%]
<2 | <1 | CCOc1ccc(-n2nc(C(N)=O)c3c2C(=O)N(c2ccc(-n4cccc(C)c4=O)cc2)CC3)cc1F [A 27, 1-(3-fluoro-4-ethoxyphenyl)-6-(4-(3-methyl-2-oxopyridin-1(2H)-yl)phenyl)-7-oxo-4,5,6,7-tetrahydro-1H-pyrazolo[3,4-c]pyridine-3-carboxamide] | 68.7
<1 | <1 | CCOc1ccc(-n2nc(C(N)=O)c3c2C(=O)N(c2ccc(-n4cccc(C)c4=O)cc2)CC3)cc1 [A 28, 1-(4-ethoxyphenyl)-6-(4-(3-methyl-2-oxopyridin-1(2H)-yl)phenyl)-7-oxo-4,5,6,7-tetrahydro-1H-pyrazolo[3,4-c]pyridine-3-carboxamide] | 73.1
<2 | <1 | CCOc1ccc(-n2nc(C(N)=O)c3c2C(=O)N(c2ccc(N4CCCCC4=O)cc2)CC3)cc1Cl [A 29, 1-(3-chloro-4-ethoxyphenyl)-6-(4-(2-oxopiperidin-1-yl)phenyl)-7-oxo-4,5,6,7-tetrahydro-1H-pyrazolo[3,4-c]pyridine-3-carboxamide] | 67.4
<1 | <1 | CCOc1ccc(-n2nc(C(N)=O)c3c2C(=O)N(c2ccc(N4CCCCC4=O)c(C)c2)CC3)cc1 [A 31, 1-(4-ethoxyphenyl)-6-(3-methyl-4-(2-oxopiperidin-1-yl)phenyl)-7-oxo-4,5,6,7-tetrahydro-1H-pyrazolo[3,4-c]pyridine-3-carboxamide] | 71.5
<1 | <1 | CCOc1ccc(-n2nc(C(N)=O)c3c2C(=O)N(c2ccc(N4CCCCC4=O)c(C)c2)CC3)cc1F [A 32, 1-(3-fluoro-4-ethoxyphenyl)-6-(3-methyl-4-(2-oxopiperidin-1-yl)phenyl)-7-oxo-4,5,6,7-tetrahydro-1H-pyrazolo[3,4-c]pyridine-3-carboxamide] | 61.4
<1 | <1 | CCOc1ccc(-n2nc(C(N)=O)c3c2C(=O)N(c2ccc(N4CCOCC4=O)c(C)c2)CC3)cc1 [A 33, 1-(4-ethoxyphenyl)-6-(3-methyl-4-(3-oxomorpholino)phenyl)-7-oxo-4,5,6,7-tetrahydro-1H-pyrazolo[3,4-c]pyridine-3-carboxamide] | 60.8
<1 | <1 | CCOc1ccc(-n2nc(C(N)=O)c3c2C(=O)N(c2ccc(N4CCOCC4=O)c(C)c2)CC3)cc1F [A 34, 1-(3-fluoro-4-ethoxyphenyl)-6-(3-methyl-4-(3-oxomorpholino)phenyl)-7-oxo-4,5,6,7-tetrahydro-1H-pyrazolo[3,4-c]pyridine-3-carboxamide] | 62.5
<1 | <1 | CCOc1ccc(-n2nc(C(N)=O)c3c2C(=O)N(c2ccc(N4CCCC4=O)c(C)c2)CC3)cc1F [A 36, 1-(3-fluoro-4-ethoxyphenyl)-6-(3-methyl-4-(2-oxopyrrolidin-1-yl)phenyl)-7-oxo-4,5,6,7-tetrahydro-1H-pyrazolo[3,4-c]pyridine-3-carboxamide] | 71.6
<1 | <1 | CCOc1ccc(-n2nc(C(N)=O)c3c2C(=O)N(c2ccc(-n4ccccc4=O)c(C)c2)CC3)cc1 [A 37, 1-(4-ethoxyphenyl)-6-(3-methyl-4-(2-oxopyridin-1(2H)-yl)phenyl)-7-oxo-4,5,6,7-tetrahydro-1H-pyrazolo[3,4-c]pyridine-3-carboxamide] | 63.7
<1 | <1 | CCOc1ccc(-n2nc(C(N)=O)c3c2C(=O)N(c2ccc(-n4ccccc4=O)c(C)c2)CC3)cc1F [A 38, 1-(3-fluoro-4-ethoxyphenyl)-6-(3-methyl-4-(2-oxopyridin-1(2H)-yl)phenyl)-7-oxo-4,5,6,7-tetrahydro-1H-pyrazolo[3,4-c]pyridine-3-carboxamide] | 70.5
<1 | <1 | CCOc1ccc(-n2nc(C(N)=O)c3c2C(=O)N(c2ccc(-n4cccc(C)c4=O)c(C)c2)CC3)cc1 [A 39, 1-(4-ethoxyphenyl)-6-(3-methyl-4-(3-methyl-2-oxopyridin-1(2H)-yl)phenyl)-7-oxo-4,5,6,7-tetrahydro-1H-pyrazolo[3,4-c]pyridine-3-carboxamide] | 64.5
<1 | <1 | CCOc1ccc(-n2nc(C(N)=O)c3c2C(=O)N(c2ccc(-n4cccc(C)c4=O)c(C)c2)CC3)cc1F [A 40, 1-(3-fluoro-4-ethoxyphenyl)-6-(3-methyl-4-(3-methyl-2-oxopyridin-1(2H)-yl)phenyl)-7-oxo-4,5,6,7-tetrahydro-1H-pyrazolo[3,4-c]pyridine-3-carboxamide] | 63.4

— patent US9975893B2, “Pyrazolo[3,4-c]pyridine derivatives” (CSPC ZHONGQI PHARMACEUTICAL TECHNOLOGY (SHIJIAZHUANG) CO., …, priority 2014, dated 2018)
